Test results taken from PubChem BioAssay AID1919014 (Molecular Pharmacology Branch, DTP, NCI, 2023).
Several values for one entry are separate records, joined by “and”; a condition that tells them apart may be missing. Equal values may be shown once.

Tested on: NCI-H1341 complex spheroids, percent test/control
Experiment: Anticancer human tumor NCI-H1341 cell line growth inhibition [AhR];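 note: spheroids exposed to agents for seven days before readout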
Conditions: for viability, T/C: stronger effect = lower value
How it was run: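 Complex tumor spheroids co-cultured with HUVEC and human MSC stroma; AhR antagonists tested in combination with standard-of-care and investigational agents. Top concentration at or near clinical Cmax (else 10 microM), half-log dilutions; growth expressed as percent test/control.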

[1] = curve of first compound, second compound 0.1 µM
[2] = curve of first compound, second compound 0.316 µM
[3] = curve of first compound, second compound 1 µM
[4] = curve of first compound, second compound 3.16 µM
[5] = curve of first compound, second compound 10 µM
[6] = second compound 0.1 µM, first compound 0.0316 µM
[7] = second compound 0.1 µM, first compound 0.1 µM
[8] = second compound 0.1 µM, first compound 0.316 µM
[9] = second compound 0.1 µM, first compound 1 µM
[10] = second compound 0.1 µM, first compound 3.16 µM
[11] = second compound 0.1 µM, first compound 10 µM
[12] = second compound 0.316 µM, first compound 0.0316 µM
[13] = second compound 0.316 µM, first compound 0.1 µM
[14] = second compound 0.316 µM, first compound 0.316 µM
[15] = second compound 0.316 µM, first compound 1 µM
[16] = second compound 0.316 µM, first compound 3.16 µM
[17] = second compound 0.316 µM, first compound 10 µM
[18] = second compound 1 µM, first compound 0.0316 µM
[19] = second compound 1 µM, first compound 0.1 µM
[20] = second compound 1 µM, first compound 0.316 µM
[21] = second compound 1 µM, first compound 1 µM
[22] = second compound 1 µM, first compound 3.16 µM
[23] = second compound 1 µM, first compound 10 µM
[24] = second compound 3.16 µM, first compound 0.0316 µM
[25] = second compound 3.16 µM, first compound 0.1 µM
[26] = second compound 3.16 µM, first compound 0.316 µM
[27] = second compound 3.16 µM, first compound 1 µM
[28] = second compound 3.16 µM, first compound 3.16 µM
[29] = second compound 3.16 µM, first compound 10 µM
[30] = second compound 10 µM, first compound 0.0316 µM
[31] = second compound 10 µM, first compound 0.1 µM
[32] = second compound 10 µM, first compound 0.316 µM
[33] = second compound 10 µM, first compound 1 µM
[34] = second compound 10 µM, first compound 3.16 µM
[35] = second compound 10 µM, first compound 10 µM

`Nc1ccccc1NC(=O)c1ccc(CNC(=O)OCc2cccnc2)cc1` + Cc1cncc(-c2nc(NCCc3c[nH]c4ccccc34)c3ncn(C(C)C)c3n2)c1 showed an IC50 [1] of 403 nM, an IC50 [2] of 382 nM and an IC50 [3] of 369 nM. For the same compound, the IC50 [4] was 127 nM, the IC50 [5] was under 31.6 nM and the viability, T/C [6] was 66.1%. It also gave a viability, T/C [7] of 76.2%, a viability, T/C [8] of 52.2% and a viability, T/C [9] of 29.1%. It also gave a viability, T/C [10] of 5.05%, a viability, T/C [11] of 0.51% and a viability, T/C [12] of 73.4%. For the same compound, the viability, T/C [13] was 65.8%, the viability, T/C [14] was 55.7% and the viability, T/C [15] was 26.1%. The viability, T/C [16] was 5.82%, the viability, T/C [17] was 0.6% and the viability, T/C [18] was 68.6%. For the same compound, the viability, T/C [19] was 84.9%, the viability, T/C [20] was 51.3% and the viability, T/C [21] was 19.8%. For the same compound, the viability, T/C [22] was 5.68%, the viability, T/C [23] was 0.56% and the viability, T/C [24] was 55.3%. For the same compound, the viability, T/C [25] was 52.2%, the viability, T/C [26] was 42.3% and the viability, T/C [27] was 21.7%. The viability, T/C [28] was 8.4%, the viability, T/C [29] was 0.87% and the viability, T/C [30] was 21.9%. It also gave a viability, T/C [31] of 22.6%, a viability, T/C [32] of 15.2% and a viability, T/C [33] of 9.63%. For the same compound, the viability, T/C [34] was 1.83% and the viability, T/C [35] was 0.47%.

`CC[C@@]1(O)C(=O)OCc2c1cc1n(c2=O)Cc2cc3c(CN(C)C)c(O)ccc3nc2-1` + CC(CO)NC(=O)c1cc(-c2ccc(Cl)cc2)nn(-c2cnn(C)c2)c1=O gave an IC50 [1] of 31.3 nM, an IC50 [2] of 60.3 nM and an IC50 [3] of 48.9 nM. It also gave an IC50 [4] of 31.4 nM, an IC50 [5] of 32.4 nM and a viability, T/C (second compound 0.1 µM, first compound 0.000316 µM) of 81.7%. For the same compound, the viability, T/C (second compound 0.1 µM, first compound 0.001 µM) was 85.1%, the viability, T/C (second compound 0.1 µM, first compound 0.00316 µM) was 103% and the viability, T/C (second compound 0.1 µM, first compound 0.01 µM) was 81.5%. The viability, T/C [6] was 50.3%, the viability, T/C [7] was 40.2% and the viability, T/C (second compound 0.316 µM, first compound 0.000316 µM) was 84.4%. It also gave a viability, T/C (second compound 0.316 µM, first compound 0.001 µM) of 66.2%, a viability, T/C (second compound 0.316 µM, first compound 0.00316 µM) of 84.6% and a viability, T/C (second compound 0.316 µM, first compound 0.01 µM) of 75.8%. The viability, T/C [12] was 58.3%, the viability, T/C [13] was 43.5% and the viability, T/C (second compound 1 µM, first compound 0.000316 µM) was 90.7%. For the same compound, the viability, T/C (second compound 1 µM, first compound 0.001 µM) was 84%, the viability, T/C (second compound 1 µM, first compound 0.00316 µM) was 65% and the viability, T/C (second compound 1 µM, first compound 0.01 µM) was 76.8%. For the same compound, the viability, T/C [18] was 58.8%, the viability, T/C [19] was 37.2% and the viability, T/C (second compound 3.16 µM, first compound 0.000316 µM) was 87.3%. For the same compound, the viability, T/C (second compound 3.16 µM, first compound 0.001 µM) was 74.8%, the viability, T/C (second compound 3.16 µM, first compound 0.00316 µM) was 79.2% and the viability, T/C (second compound 3.16 µM, first compound 0.01 µM) was 71.4%. It also gave a viability, T/C [24] of 49.5%, a viability, T/C [25] of 39.1% and a viability, T/C (second compound 10 µM, first compound 0.000316 µM) of 80.8%. It also gave a viability, T/C (second compound 10 µM, first compound 0.001 µM) of 77.8%, a viability, T/C (second compound 10 µM, first compound 0.00316 µM) of 69.2% and a viability, T/C (second compound 10 µM, first compound 0.01 µM) of 70.1%. For the same compound, the viability, T/C [30] was 48% and the viability, T/C [31] was 36.6%.

`COc1cccc2c1C(=O)c1c(O)c3c(c(O)c1C2=O)CC(O)(C(=O)CO)CC3OC1CC(N)C(O)C(C)O1` (centres undefined) + Cc1ccccc1N=Nc1ccc(NC(=O)c2ccnn2C)c(C)c1 was tested, and the IC50 [1] was 92.8 nM, the IC50 [2] was under 31.6 nM and the IC50 [3] was 166 nM. The IC50 [4] was under 31.6 nM, the IC50 [5] was under 31.6 nM and the viability, T/C [6] was 59.7%. The viability, T/C [7] was 44.6%, the viability, T/C [8] was 37.9% and the viability, T/C [9] was 18.2%. It also gave a viability, T/C [10] of 1.96%, a viability, T/C [11] of 4.55% and a viability, T/C [12] of 50%. It also gave a viability, T/C [13] of 48.6%, a viability, T/C [14] of 38.2% and a viability, T/C [15] of 24.2%. For the same compound, the viability, T/C [16] was 2.31%, the viability, T/C [17] was 4.21% and the viability, T/C [18] was 58.8%. For the same compound, the viability, T/C [19] was 51.5%, the viability, T/C [20] was 44.6% and the viability, T/C [21] was 16.5%. It also gave a viability, T/C [22] of 2.36%, a viability, T/C [23] of 4.45% and a viability, T/C [24] of 50.1%. It also gave a viability, T/C [25] of 48.2%, a viability, T/C [26] of 41.1% and a viability, T/C [27] of 16.2%. The viability, T/C [28] was 3.35%, the viability, T/C [29] was 5.99% and the viability, T/C [30] was 40.9%. It also gave a viability, T/C [31] of 41.2%, a viability, T/C [32] of 35.9% and a viability, T/C [33] of 14.4%. For the same compound, the viability, T/C [34] was 5.03% and the viability, T/C [35] was 4.31%.

For `Nc1ncn(C2CC(O)C(CO)O2)c(=O)n1` (centres undefined), the viability, T/C (compound 0.00316 µM) was 107% and 86.3% and 88.1%, the viability, T/C (compound 0.01 µM) was 95.4% and 112% and 100% and the viability, T/C (compound 0.0316 µM) was 102% and 89.2% and 69.8%. The viability, T/C (compound 0.1 µM) was 64.2% and 72.3% and 74.5%, the viability, T/C (compound 0.316 µM) was 50.6% and 52.8% and 43.7% and the viability, T/C (compound 1 µM) was 37% and 45.7% and 25.6%. For the same compound, the IC50 (curve of compound) was 231 nM and 466 nM and 261 nM.

`CC(C)CC(NC(=O)C(Cc1ccccc1)NC(=O)c1cnccn1)B(O)O` (centres undefined) was tested, and the viability, T/C (compound 0.000949 µM) was 97% and 95% and 100%, the viability, T/C (compound 0.003 µM) was 87.7% and 87% and 79% and the viability, T/C (compound 0.00949 µM) was 2.76% and 3.47% and 0.86%. The viability, T/C (compound 0.03 µM) was 0.19% and 0.35% and 0.14%, the viability, T/C (compound 0.0949 µM) was 0.14% and 0.25% and 0.11% and the viability, T/C (compound 0.3 µM) was 0.17% and 0.31% and 0.15%. For the same compound, the IC50 (curve of compound) was 5 nM and 4.6 nM.

`COc1cc(Nc2ncc3c(n2)-c2ccc(Cl)cc2C(c2c(F)cccc2OC)=NC3)ccc1C(=O)O` + Cc1ccccc1N=Nc1ccc(NC(=O)c2ccnn2C)c(C)c1 showed an IC50 [1] of under 31.6 nM, an IC50 [2] of under 31.6 nM and an IC50 [3] of 249 nM. It also gave an IC50 [4] of under 31.6 nM, an IC50 [5] of under 31.6 nM and a viability, T/C [6] of 48.9%. The viability, T/C [7] was 45.1%, the viability, T/C [8] was 42% and the viability, T/C [9] was 31.9%. The viability, T/C [10] was 29.9%, the viability, T/C [11] was 25.6% and the viability, T/C [12] was 50.6%. The viability, T/C [13] was 46.3%, the viability, T/C [14] was 48.5% and the viability, T/C [15] was 39.2%. The viability, T/C [16] was 30%, the viability, T/C [17] was 25.2% and the viability, T/C [18] was 56.2%. It also gave a viability, T/C [19] of 55.3%, a viability, T/C [20] of 48.3% and a viability, T/C [21] of 40%. The viability, T/C [22] was 31.4%, the viability, T/C [23] was 26% and the viability, T/C [24] was 47.7%. For the same compound, the viability, T/C [25] was 48.1%, the viability, T/C [26] was 39.5% and the viability, T/C [27] was 40.9%. It also gave a viability, T/C [28] of 25.3%, a viability, T/C [29] of 26.8% and a viability, T/C [30] of 44%. It also gave a viability, T/C [31] of 43.9%, a viability, T/C [32] of 37.3% and a viability, T/C [33] of 38.2%. The viability, T/C [34] was 27.3% and the viability, T/C [35] was 28.6%.
